# Measured values: patent US20070049514A1, “Resonance modulator for diagnosis and therapy” (priority 2003, published 2007)
# Values joined by “and” are separate entries in the source; they are usually repeats but may differ in a detail not shown here. Equal values may be shown once. “Also recorded” adds a separate entry of the source. Read-outs that look alike come from different tables or passages of the source.
# Tests used:
# [1] = tested on: malignant squamous cell cancer (SCCA-HM); assay: BDP-DNP on squamous cell cancer with T-lymphocytes in tissue culture; type: cell-based
# Source text: FIG. 15 describes the impact of BDP-DNP on cell growth for malignant squamous cell cancer (SCCA-HM) growing in culture (pre-post Rx). On the left are large lacey star shaped squamous 15 cancer cells associated with small white clumps of naïve T-lymphocytes. […] The dark background seen on the right is due to the color of the drug. All the fluffy white cells are large clumps of activated lymphocytes.
# PTP CD45 receptor = biological target: T1, PTP CD45 receptor (Homo sapiens, UniProt P08575); assay: Binding to and up-regulation of PTP CD45 receptor
# T1 sequence (P08575 26-1306): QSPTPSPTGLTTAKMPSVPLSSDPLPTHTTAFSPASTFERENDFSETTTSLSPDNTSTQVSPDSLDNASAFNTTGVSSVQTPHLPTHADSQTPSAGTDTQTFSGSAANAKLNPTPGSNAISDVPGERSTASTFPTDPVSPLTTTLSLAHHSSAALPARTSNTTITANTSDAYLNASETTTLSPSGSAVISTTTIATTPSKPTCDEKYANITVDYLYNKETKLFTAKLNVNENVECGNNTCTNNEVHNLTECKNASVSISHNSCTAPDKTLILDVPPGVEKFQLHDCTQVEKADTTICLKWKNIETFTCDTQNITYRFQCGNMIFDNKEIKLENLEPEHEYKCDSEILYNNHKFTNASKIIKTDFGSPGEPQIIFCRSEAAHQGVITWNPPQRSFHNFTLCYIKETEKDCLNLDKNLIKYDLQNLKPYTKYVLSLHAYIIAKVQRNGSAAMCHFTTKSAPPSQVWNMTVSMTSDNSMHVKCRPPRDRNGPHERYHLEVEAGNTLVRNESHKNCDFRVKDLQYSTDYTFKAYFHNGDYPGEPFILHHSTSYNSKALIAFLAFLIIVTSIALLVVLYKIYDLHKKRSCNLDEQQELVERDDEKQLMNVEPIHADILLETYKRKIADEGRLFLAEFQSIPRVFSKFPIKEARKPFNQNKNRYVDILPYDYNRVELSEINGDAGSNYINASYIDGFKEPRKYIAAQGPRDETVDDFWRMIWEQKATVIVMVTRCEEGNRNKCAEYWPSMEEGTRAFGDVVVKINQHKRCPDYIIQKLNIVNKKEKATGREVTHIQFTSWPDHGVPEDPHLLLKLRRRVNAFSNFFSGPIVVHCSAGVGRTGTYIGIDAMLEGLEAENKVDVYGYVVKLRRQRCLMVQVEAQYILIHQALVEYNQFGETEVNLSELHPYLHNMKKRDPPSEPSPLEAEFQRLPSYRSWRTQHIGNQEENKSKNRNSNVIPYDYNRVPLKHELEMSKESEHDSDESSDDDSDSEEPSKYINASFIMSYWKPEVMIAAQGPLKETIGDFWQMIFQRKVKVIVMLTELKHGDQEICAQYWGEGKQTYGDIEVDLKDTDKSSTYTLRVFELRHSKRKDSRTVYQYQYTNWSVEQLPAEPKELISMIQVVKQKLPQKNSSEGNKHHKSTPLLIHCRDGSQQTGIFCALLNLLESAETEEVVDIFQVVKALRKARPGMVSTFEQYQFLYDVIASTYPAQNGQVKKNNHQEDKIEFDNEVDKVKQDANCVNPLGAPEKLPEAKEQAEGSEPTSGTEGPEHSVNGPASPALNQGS
# lymphocytes in culture [2] = assay: Lymphocyte blastogenesis, blasts per high powered field; type: cell-based; conditions: number of blasts per high powered field
# Experimental: (§1) Once candidates have been selected as potential resonance modulators, they can be easily assayed to determine whether they induce lymphocyte blastogenesis and activate lymphocytes. Such an assay is found in Morgan et al., Anticancer Research 13:1763-1768 (1993), which is incorporated by reference. See also Janossy et al., Clin. Exp. Immunol. 14:581-596 (1973). Briefly, uptake of [^3]thymidine was measured for lymphocytes in culture. Lymphocytes were cultured in RPMI-1640 tissue culture medium supplemented with 10% fetal bovine serum (FBS). Following stimulation with the resonance modulator, tritiated thymidine (2-20 μCi/ml, specific activity 2 Ci/mmol) was added to the cells and incubated with them. The uptake of [^3]thymidine was stopped by the addition of cold 10% trichloroacetic acid after a selected period of time, and the radioactivity of the samples measured in a scintillation counter. The % lymphoblast was determined by counting the number of blasts per high powered field (hpf) while % activation was determined by uptake of the tritiated thymidine. The increase voltage was measured with an oscilloscope as in Example 7.
# lymphocytes in culture [3] = assay: Lymphocyte activation, tritiated thymidine uptake; type: cell-based; conditions: uptake of tritiated thymidine
# Experimental: as §1
# [4] = tested on: Cutaneous Metastases (cancer lesions); assay: Phase I/II trials, topical A-007 0.25% gel on cutaneous metastases; type: in vivo, human
# [5] = tested on: T-lymphocytes (CD4+, CD3+, CD8+, CD45+) and CD11c+ dendritic cells in skin; assay: Histochemical assays of biopsies of human skin topically treated with A-007; type: in vivo
# [6] = tested on: naive human lymphocytes (obtained from peripheral blood); assay: Aggregation of naive lymphocytes around an A-007 crystal in tissue culture; type: cell-based; conditions: 0.5 mg crystals in RPMI, one hour
# Source text: The ability of an agent to induce aggregation of naïve lymphocytes in culture around a test agent is another factor to be considered in determining whether the agent is a resonance modulator suitable for use in the methods disclosed herein. The ability to induce aggregation within one hour is a particularly strong indication that the compound is suitable for further investigation. “Aggregation” refers to a substantial increase in the number of lymphocytes, such as an increase visible by microscopy, as in FIG. 5.
# lymphoma = assay: A-007 gel on the skin of a patient with lymphoma; type: in vivo, human; conditions: 0.25% gel (0.5 g)
# [7] = tested on: cervical early cancer-in-situ; assay: A-007 gel in cervical cancer-in-situ (single patient); type: in vivo, human; conditions: 0.25% gel (2 g) daily for 5 days
# Source text: The responses are associated with increased organization of T-lymphocyte patterns and disappearance of cancer cells.
# HPV = assay: A-007 0.25% gel intravaginally, HPV response (titers); type: in vivo, Humans; set-up: key: NC: no change; conditions: per patient, intravaginal gel
# [8] = tested on: T-lymphocytes (CD markers); assay: A-007 0.25% gel intravaginally, T-cell profile (tissue/blood); type: in vivo, Humans; set-up: key: NC: no change; conditions: per patient; intravaginal gel
# [9] = tested on: anal squamous cell cancer; assay: A-007 0.25% gel intra-anally, cancer response and toxicity; type: in vivo, human; conditions: per patient
# [10] = tested on: T-lymphocytes (CD markers); assay: A-007 0.25% gel intra-anally, T-cell profile (tissue/blood); type: in vivo, human; set-up: key: NC: no change; conditions: intra-anal gel
# HeLa cancer cells (HPV+) = assay: HeLa cancer cells incubated with A-007 crystals; type: cell-based; conditions: incubated with crystals for 24 hours
# Source text: Then through cell membrane chemical interphase and modulation of the PTP receptors the cells down regulate, darken with pyknotic changes associated with DNA agglutination resulting in death (lower clumped dark staining cells). The attraction that the crystals have for the cells is associated with intramolecular resonance and associated magnetic patterns described in FIGS. 3 and 4.
# [11] = tested on: benign fibroblasts or healthy epithelial cells; assay: A-007 induced cell death in non-HPV cells; type: cell-based; conditions: cells not containing or transformed by HPV
# CD45+ receptor = CD45+ receptor modulation in lymphocytes and dendritic cells; type: cell-based, human
# Source text: CD45+ is expressed on dendritic cells, lymphocytes, monocytes, and leukocytes, as well as some neoplastic cells, as a protein tyrosine phosphatase (TP), which together with other members of the PTPs, are responsible for […] tyrosine residues. Blockade of the CD45+ receptor sites with anti-CD45 antibodies inhibits T-cell activation and prevents mitogen (lectin) activation of naïve T-cells. CD45+ receptor surfaces contain arginine, serine/threonine and cysteine moieties, which can bind to and/or transfer natural ligands to the surface of APCs, as well as hydrolyze tyrosyl phosphates. […] Different resonance states of A-007 are capable of interacting with different immune cells.
# [12] = as seen by crystallography (Klein et al. 1993); cited from earlier work
# [13] = tested on: vaginal cancer / cervical cancer; assay: A-007 0.25% gel intravaginally, cancer response and toxicity; conditions: per patient
# [14] = Absorption and disposition of A-007 (blood detection, skin absorption, excretion)
# [15] = 0.4 mcg/mL, 24 hours incubation
# [16] = 53 people treated with topical 0.25% gel
# [17] = Breast, 0.25% gel topically twice daily
smiles,measurement,setting,value
"O=[N+]([O-])c1ccc(NN=C2C(=Cc3ccccc3)CCCC2=Cc2ccccc2)c([N+](=O)[O-])c1 [Compound 38, 2,6-Dibenzylidenecyclohexanone-2,4-dinitrophenylhydrazone]",cancer cells after treatment,[1]; [15],No cancer cells are detected
same,effect on naïve T-lymphocytes in the culture,[1]; [15],impressive stimulation
same,immune modulating anticancer activities vs. A-007,[1]; relative to A-007,100 fold
same,binding affinities to PTP CD45 receptor,PTP CD45 receptor,improved binding affinities
same,effect on PTP CD45 receptor,PTP CD45 receptor,upregulates the receptor
same,binding affinities to PTP CD45 receptor,PTP CD45 receptor; listed as structure 38,excellent binding affinities
same,% Lymphoblast,lymphocytes in culture [2],100%
same,% Activation,lymphocytes in culture [3],100%
"O=[N+]([O-])c1ccc(NN=C(c2ccc(O)cc2)c2ccc(O)cc2)c([N+](=O)[O-])c1 [Compound A-007, 4,4′-dihydroxybenzophenone-2,4-dinitrophenylhydrazone]",complete responses (number),[4]; [16],ten
same,objective remissions,[4]; [16],37%
same,Duration,[4]; Angiosarcoma,0 wks
same,Response: number NR,[4]; Angiosarcoma,2 NR
same,Toxicities,[4]; Angiosarcoma,0
same,Duration,[4]; Anogenital,1.8+ yrs
same,Response: number CR,[4]; Anogenital,5
same,Response: number PR,[4]; Anogenital,2
same,Toxicities,[4]; Anogenital,0
same,"Toxicities (number, skin, mild)",[4]; Breast,7 skin (mild)
same,Response: number CR,[4]; [17],5
same,Response: number PR,[4]; [17],7
same,Response: number stable,[4]; [17],6 stable
same,Duration,[4]; H/N (Sq. Cell),0 wks
same,Toxicities,[4]; H/N (Sq. Cell),0
same,Duration,[4]; KS (Kaposi's sarcoma),11 wks
same,Response: number NR,[4]; KS (Kaposi's sarcoma),"2 PR, 2 NR"
same,Response: number PR,[4]; KS (Kaposi's sarcoma),"2 PR, 2 NR"
same,Toxicities,[4]; KS (Kaposi's sarcoma),0
same,Duration,[4]; Melanoma,3-15 wks
same,Response: number NR,[4]; Melanoma,3
same,"Toxicities (number, skin, mild)",[4]; Melanoma,2 Skin (mild)
same,Response: number PR,"[4]; Melanoma, 0.25% gel topically twice daily",1
same,Duration,[4]; NHL,3.5 yrs
same,Toxicities,[4]; NHL,0
same,Response: number PR,[4]; NHL (non-Hodgkins' lymphoma),1 PR
same,local or systemic toxicity,[4]; topical A-007,substantial absence of A-007 induced local or systemic toxicity
same,"T-lymphocyte infiltrates (CD4+, CD3+, CD8+, CD45+) in treated skin",[5]; biopsies during topical treatment,increased infiltrates
same,CD11c+ dendritic cell infiltrates in treated skin,[5]; treated areas,Increased skin infiltrates
same,aggregation of lymphocytes around crystal,[6],lymphocytes and dendritic cells aggregate around the crystal or pellet
same,peripheral lymphocyte profile (total lymphocyte count),lymphoma,improvement
same,duration of cure,[7],over one year
same,response of cervical carcinoma-in-situ (biopsy),[7],disappearance of the cancer cells; also recorded: loss of malignant changes
same,"HPV (Response), changes in HP titers",HPV,+(50%)
same,"HPV (Response), changes in HP titers",HPV; CR as in Table 1,+(NC)
same,T-Cell Profile (Tissue/Blood) CD8/4+,[8],NC
same,Response (Cancer),[9]; gel intra-anally daily for five days,0% (4×) and 100%
same,Toxicity,[9]; intra-anal gel,None
same,T-Cell Profile (Tissue/Blood) All others,[10]; patient A-3,NC
same,T-Cell Profile (Tissue/Blood) CD4/8,[10]; patient A-5,NC
same,T-Cell Profile (Tissue/Blood) CD45+,[10]; per patient,(NC)
same,effect on HeLa cancer cells,HeLa cancer cells (HPV+),undergo necrobiosis and death; also recorded: undergo pyknosis (DNA agglutination and necrosis) and die
same,A-007 induced cell death,[11],not observed
same,% Lymphoblast,lymphocytes in culture [2],75%
same,% Activation,lymphocytes in culture [3],100%
same,inhibition of CD45+,CD45+ receptor,does not inhibit or block CD45+
same,CD45+ and CD11c+ receptors in human peripheral dendritic cells,CD45+ receptor; A-007-activated DCs,up-regulating both CD45+ and CD11c+ receptors
same,hydrogen bond donors,[12],greater than 5
same,Response (Cancer),[13]; 2 g gel intravaginally daily for five days,75% and >75%
same,Toxicity,[13]; intravaginal gel,None
same,excretion,[14]; administered to a human subject,excreted substantially unchanged
same,absorption from/through the skin,"[14]; applied to skin, animal and human studies",not absorbed from the skin; also recorded: substantially not absorbed through the skin
same,absorption into the blood,[14]; in vivo,not absorbed into the blood
same,detection of A-007 in blood,[14]; subjects treated with topical A-007,not been detected in the blood
"O=C1c2ccccc2C(=NNc2ccc([N+](=O)[O-])cc2[N+](=O)[O-])c2ccc(O)c(O)c21 [DNPA, 10-[(2,4-dinitrophenyl)hydrazono]-1,2-dihydroxy-10H-anthracen-9-one]",% Lymphoblast,lymphocytes in culture [2],50%
same,% Activation,lymphocytes in culture [3],75%
"CC(C)C(=O)Nc1ccc([N+](=O)[O-])c(C(F)(F)F)c1 [Fludamide, reference compound]",% Lymphoblast,lymphocytes in culture [2],0%
same,% Activation,lymphocytes in culture [3],0%
